Measured values as given in patent publication US20220193085A1, “METHODS OF THROMBOPROPHYLAXIS” (JANSSEN PHARMACEUTICALS, INC., priority 2020, published 2022).

What was measured:
[1] = UNIVERSE primary efficacy outcome: any thrombotic event (CIAC adjudicated); type: in vivo, pediatric patients; details: Part B rivaroxaban N=64, aspirin N=34, up to end of treatment, full analysis set
Excerpt: This study was a prospective, open-label, active-controlled, multicenter study designed to evaluate the PK and PK/PD profiles, safety, and efficacy of rivaroxaban for thromboprophylaxis in pediatric patients 2 to 8 years of age with single ventricle physiology who have completed the Fontan procedure within 4 months prior to enrollment. The trial was approved by the institutional review board of each participating institution, as well as the appropriate national ethics committee. Written informed consent for trial participation was obtained from the parent or guardian of each patient. An Independent Data Monitoring Committee (IDMC) ensured patients' safety throughout the trial. A Central Independent Adjudication Committee (CIAC) reviewed all efficacy and safety events.
Part B was the randomized, open-label, active-controlled part of the study that evaluated the safety and efficacy of twice daily administration of rivaroxaban compared to ASA (usual standard of care) for thromboprophylaxis for 12 months. Patients randomized to rivaroxaban also had PK and PD assessments.
Primary efficacy outcome: Any thrombotic event, venous or arterial, symptomatic or asymptomatic defined as: • The appearance of a new thrombus within the cardiovascular system on either routine surveillance or clinically indicated imaging, or • The occurrence of a clinical event known to be strongly associated with thrombus (e.g., stroke, pulmonary embolism).
All efficacy outcomes were adjudicated by the CIAC, blinded to assigned treatment.

[2] = human, in vivo
Excerpt: The methods and products of the invention concern dosages that are clinically proven safe and/or effective. Adverse events that impact whether the inventive dose, dosing regimen, treatment or method with rivaroxaban of the present invention are safe are adverse bleeding events that include, for example, major bleeding. “Major bleeding” as used herein is defined in accordance with ISTH criteria as clinically overt bleeding associated with a decrease in hemoglobin of […], a transfusion of the equivalent of […] of packed red blood cells or whole blood, or bleeding at a critical site, or with fatal outcome. Other adverse events include clinically relevant non-major bleeding and trivial (minimal) bleeding.
The primary safety outcome was ISTH defined major bleeding. Major bleeding was defined as overt bleeding and: […]
1) Associated with a fall in hemoglobin of 2 g/dL or more; or 2) Leading to a transfusion of the equivalent of 2 or more units of packed red blood cells or whole blood in adults; or 3) Occurring in a critical site: intracranial, intraspinal, intraocular, pericardial, intraarticular, intramuscular with compartment syndrome, retroperitoneal; or 4) Contributing to death.
The secondary safety outcomes were: Clinically relevant non-major bleeding and trivial (minimal) bleeding events.

[3] = UNIVERSE adverse events, serious adverse events and treatment discontinuation; type: in vivo, pediatric patients; details: Part B rivaroxaban N=64, aspirin N=34
Excerpt: Other safety outcomes: Any adverse events and serious adverse events (SAES).

[4] = treatment-emergent, safety set, listed as ASA
[5] = up to end of treatment, full analysis set

CC(=O)Oc1ccccc1C(=O)O [Aspirin, acetylsalicylic acid]
All-cause mortality, No. of subjects with event [1]: 0 | Any thrombotic event (primary efficacy outcome), % of subjects [1]: (8.8%) | Arterial/intracardiac thrombosis, subjects n (%) [1]: 0 | Ischemic stroke, % of subjects [1]: (2.9%) | Other thrombosis, subjects n (%) [1]: 0 | Pulmonary embolism, subjects n (%) [1]: 0 | Venous thromboembolism, % of subjects [1]: (5.9%) | Venous thromboembolism, No. of subjects with event [1]: 2/34 | Venous thrombosis, % of subjects [1]: (5.9%) | Any thrombotic event (primary efficacy outcome), % of subjects ([1]; listed as ASA): 9% | CRNM bleeding: GI-Lower, % of subjects [2]: (2.9%) | CRNM bleeding: Gastrointestinal, % of subjects [2]: (2.9%) | CRNM bleeding: Gastrointestinal, subjects n (%) [2]: 1 | CRNM bleeding: Gingival, subjects n (%) [2]: 0 | CRNM bleeding: Hematoma, % of subjects [2]: (2.9%) | CRNM bleeding: Skin, % of subjects [2]: (2.9%) | CRNM bleeding: Subconjunctival, % of subjects [2]: (2.9%) | Clinically relevant non-major (CRNM) bleeding, % of subjects [2]: (8.8%) | Clinically relevant non-major (CRNM) bleeding, No. of subjects with event [2]: 3/34 | Clinically relevant non-major bleeding, % of subjects [2]: (8.8%) | Fall in hemoglobin ≥2 g/dL or transfusion of the equivalent ≥2 units of packed red blood cell or whole blood in adults, No. of subjects with event [2]: 0 | Fatal or critical site bleeding, No. of subjects with event [2]: 0 | Major and clinically relevant non-major bleeding, % of subjects [2]: (8.8%) | Major and clinically relevant non-major bleeding, No. of subjects with event [2]: 3/34 | Major bleeding (primary safety outcome), No. of subjects with event [2]: 0 | Subjects with 1 or more on-treatment bleeding events, % of subjects [2]: (41.2%) | Trivial (minimal) bleeding, % of subjects [2]: (35.3%) | Trivial (minimal) bleeding, No. of subjects with event [2]: 12/34 | Trivial bleeding, % of subjects [2]: (35.3%) | Trivial bleeding: Epistaxis, % of subjects [2]: (8.8%) | Trivial bleeding: Epistaxis, subjects n (%) [2]: 3 | Trivial bleeding: GI-Lower, % of subjects [2]: (2.9%) | Trivial bleeding: GI-Lower, subjects n (%) [2]: 1 | Trivial bleeding: GI-Upper, subjects n (%) [2]: 0 | Trivial bleeding: Gastrointestinal, % of subjects [2]: (2.9%) | Trivial bleeding: Gastrointestinal, subjects n (%) [2]: 1 | Trivial bleeding: Gingival, % of subjects [2]: (2.9%) | Trivial bleeding: Gingival, subjects n (%) [2]: 1 | Trivial bleeding: Hematoma, % of subjects [2]: (5.9%) | Trivial bleeding: Hematoma, subjects n (%) [2]: 2 | Trivial bleeding: Skin, % of subjects [2]: (23.5%) | Trivial bleeding: Vascular Access Site, subjects n (%) [2]: 0 | AEs related to Study Agent, % of subjects ([3]; safety set): (26.5%) | AEs related to Study Agent, n (%) ([3]; safety set): 9 | SAEs related to Study Agent, n (%) ([3]; safety set): 0 | TEAEs resulting in Permanent Discontinuation of Study Agent, n (%) ([3]; safety set): 0 | Adverse event: Pleural Effusion, % of participants ([3]; treatment-emergent, safety set): (6%) | All TEAEs (subjects with 1 or more), % of subjects ([3]; treatment-emergent, safety set): (85.3%) | All TESAEs (subjects with 1 or more serious adverse events), % of subjects ([3]; treatment-emergent, safety set): (23.5%) | Serious adverse event: Infections, % of participants ([3]; treatment-emergent, safety set): (12%) | Serious adverse event: Infections, n (%) ([3]; treatment-emergent, safety set): 4 | Serious adverse event: Pleural Effusion, % of participants ([3]; treatment-emergent, safety set): (6%) | Serious adverse event: Pleural Effusion, n (%) ([3]; treatment-emergent, safety set): 2 | Serious adverse event: Respiratory, Thoracic, and Mediastinal Disorders, % of participants ([3]; treatment-emergent, safety set): (9%) | Serious adverse event: Respiratory, Thoracic, and Mediastinal Disorders, n (%) ([3]; treatment-emergent, safety set): 3 | TEAE: Gastrointestinal Disorders, % of subjects ([3]; treatment-emergent, safety set): (26.5%) | TEAE: Gastrointestinal Disorders, n (%) ([3]; treatment-emergent, safety set): 9 | TEAE: General Disorders and Administration Site Conditions, % of subjects ([3]; treatment-emergent, safety set): (23.5%) | TEAE: General Disorders and Administration Site Conditions, n (%) ([3]; treatment-emergent, safety set): 8 | TEAE: Infections and infestations, % of subjects ([3]; treatment-emergent, safety set): (64.7%) | TEAE: Injury, Poisoning, and Procedural Complications, % of subjects ([3]; treatment-emergent, safety set): (29.4%) | TEAE: Injury, Poisoning, and Procedural Complications, n (%) ([3]; treatment-emergent, safety set): 10 | TEAE: Respiratory, Thoracic, and Mediastinal Disorders, % of subjects ([3]; treatment-emergent, safety set): (26.5%) | TEAE: Respiratory, Thoracic, and Mediastinal Disorders, n (%) ([3]; treatment-emergent, safety set): 9 | TEAE: Skin and Subcutaneous Tissue Disorders, % of subjects ([3]; treatment-emergent, safety set): (26.5%) | TEAE: Skin and Subcutaneous Tissue Disorders, n (%) ([3]; treatment-emergent, safety set): 9 | TEAE: Vascular Disorders, % of subjects ([3]; treatment-emergent, safety set): (2.9%) | TEAE: Vascular Disorders, n (%) ([3]; treatment-emergent, safety set): 1 | Adverse event: Pleural Effusion, n (%) [3, 4]: 2 | All TEAEs (subjects with 1 or more), % of subjects [3, 4]: (85%) | All TEAEs (subjects with 1 or more), n (%) [3, 4]: 29 | All TESAEs (subjects with 1 or more serious adverse events), % of subjects [3, 4]: (24%) | All TESAEs (subjects with 1 or more serious adverse events), n (%) [3, 4]: 8 | TEAE: Gastrointestinal Disorders, % of subjects [3, 4]: (26%) | TEAE: General Disorders and Administration Site Conditions, % of subjects [3, 4]: (24%) | TEAE: Infections and infestations, % of subjects [3, 4]: (65%) | TEAE: Infections and infestations, n (%) [3, 4]: 22 | TEAE: Injury, Poisoning, and Procedural Complications, % of subjects [3, 4]: (29%) | TEAE: Respiratory, Thoracic, and Mediastinal Disorders, % of subjects [3, 4]: (26%) | TEAE: Skin and Subcutaneous Tissue Disorders, % of subjects [3, 4]: (26%) | TEAE: Vascular Disorders, % of subjects [3, 4]: (3%) | SAEs, % of subjects [3, 5]: (23.5%) | SAEs, No. of subjects with event [3, 5]: 8/34
